Laboratory results taken from article PMC2937036 (PLoS ONE, 2010).
Where a SMILES comes first, the peptide text is derived from it. Bridges are numbered along the chain shown (N, C = ends).

Key:
[1] = tested on: Escherichia coli ML35; assay: Bactericidal assay (LD99.9), E. coli; type: cell-based; conditions: 10 mM phosphate buffer pH 7.0 with 1% TSB, 2 h, 37°C
Procedure: (§1) The peptides were tested for microbicidal activities against Bacillus subtilis ATCC6633, Escherichia coli ML35, and Staphylococcus aureus 42D as previously described. Suspensions of logarithmically growing test bacteria were incubated on a microtiter plate at a concentration of 10^5 colony-forming units/mL with various peptide dilutions. The medium was 100 µL of 10 mM phosphate buffer pH 7.0 supplemented with 1% (v/v) of tryptic soy broth (TSB). For later assays, human male serum was also added to a final concentration of 25%. 10 µL aliquots were collected at time 0 h and after 2 h of incubation on a rotary shaker (300 rpm) at 37°C. These were plated on blood agar plates and incubated overnight at 37°C. The Lethal Dose concentration (LD99.9) was determined, corresponding to the concentration killing >99.9% of the inoculum at 2 h. These experiments were performed in duplicate.
(§2) For the testing of the peptides' activities in different conditions, e.g. with serum, we use the same cut-off for activity as defined for Minimum Bactericidal Concentration (MBC), i.e. a 1000-fold reduction of the inoculum. However, we designate this peptide concentration with the more general term LD99.9 which can be applied to the specified conditions of the experiments performed here.

[2] = tested on: Staphylococcus aureus 42D; assay: Bactericidal assay (LD99.9), S. aureus in 25% human serum; type: cell-based; conditions: unit not given (Table 3 uses µM)
Procedure: In order to be able to make a direct comparison with our serum stability measurements, a few peptides were selected to be tested for antimicrobial activity in 25% human serum (Table 4). […] All LD99.9 values are higher compared to the initial assays in 10 mM sodium phosphate buffer. Contributing factors to this general loss in activity could be the increased ionic concentration, interactions with serum components such as albumin or other proteins, and peptide degradation. Both hexamers with unprotected termini, Lfc1 and Com1, are no longer active while the cyclized short peptides remained fairly antimicrobial. In human serum, Lfc5 and Lfc6 are equally anti-staphylococcal. This reflects a greater loss of activity for Lfc6, but also coincides with the lower serum stability that this peptide has compared to Lfc5 (Fig. 2C). The activities of the cyclized Com peptides were all lowered equally with a 16-fold increase in LD99.9 values compared to activities in serum-excluded media and this agrees with their similar stability profiles (Fig. 2D).
as §1, §2

[3] = tested on: Staphylococcus aureus 42D; assay: Bactericidal assay (LD99.9), S. aureus; type: cell-based; conditions: 10 mM phosphate buffer pH 7.0 with 1% TSB, 2 h, 37°C
Procedure: as §1, §2

[4] = tested on: Bacillus subtilis ATCC6633; assay: Bactericidal assay (LD99.9), B. subtilis; type: cell-based; conditions: 10 mM phosphate buffer pH 7.0 with 1% TSB, 2 h, 37°C
Procedure: as §1, §2

[5] = in vitro; conditions: 25% human male serum; for intact peptide after 2 h: 37°C
Procedure: To investigate the effects of the modifications on proteolytic susceptibility, the disappearance of the intact peptides incubated in diluted human serum at 37°C was followed by RP-HPLC. […] Incubations were normally done for 9 h and, in some cases, longer.
Peptide stabilities were assayed in diluted serum as previously described. 25% human male serum was centrifuged at 13,000 rpm for 10 min to remove lipids and the supernatant was collected and incubated at 37°C for at least 15 min. The assay was initiated upon the addition of the test peptide to the serum for a final peptide concentration of 5 µM. 200 µL aliquots of the incubations were taken for the following time points: 0, 30, 75, 120, 240, 390 and 540 min. The aliquots were mixed with 40 µL of 15% trichloroacetic acid (TCA) and incubated at 4°C for at least 15 min to precipitate serum proteins. In the case of Com5 and Com6, 5 µL of 1 M NaOH was supplemented to the TCA to prevent peptide precipitation. The supernatant was collected for each sample after centrifugation at 13,000 rpm for 10 min and stored at −20°C. These assays were performed in triplicate.
Reverse phase high performance liquid chromatography (RP-HPLC) analysis was performed with an AKTA Purifier from Amersham Biosciences (Westborough, MA) using an uRPC C2/C18 ST 4.6/100 column from Pharmacia Biotech (SanJose, CA) of the following dimensions: bed length 100 mm, i.d. 4.6 mm, 120Å. Individually thawed samples were injected through a 100 µL loop, after which a linear gradient was run from 100% solution A (0.05% trifluoroacetic acid (TFA) in filtered water) to 100% solution B (0.045% TFA in 90% acetonitrile) with a flow rate at 0.5 mL/min. The relative concentrations of the remaining soluble peptides were analyzed by the integration of the absorbance at 215 nm as a function of retention time using the Analysis module of the Unicorn software package.

**Q.** Which “99.9% Lethal Dose Concentration (LD99.9) E. coli” value [1] does the source give for N=C(N)NCCC[C@H](NC(=O)[C@H](Cc1c[nH]c2ccccc12)NC(=O)[C@H](Cc1c[nH]c2ccccc12)NC(=O)[C@H](CCCNC(=N)N)NC(=O)[C@@H](N)CCCNC(=N)N)C(=O)N[C@@H](Cc1ccccc1)C(=O)O [Com1, RRWWRF] (H-RRWWRF-OH) here?
**A.** 60 µM

**Q.** And the “LD99.9 anti-S. aureus in 25% human serum” value [2]?
**A.** >120

**Q.** And the “99.9% Lethal Dose Concentration (LD99.9) S. aureus” value [3]?
**A.** 7.5 µM

**Q.** What about the “99.9% Lethal Dose Concentration (LD99.9) B. subtilis” value [4] of the same compound?
**A.** 1.9 µM

**Q.** And the “intact peptide after 2 h” value [5]?
**A.** completely gone

**Q.** And the half-life at 5 µM ([5]; male, human)?
**A.** < 0.5 h

**Q.** What does the source list for CC(=O)N[C@@H](CCCNC(=N)N)C(=O)N[C@@H](CCCNC(=N)N)C(=O)N[C@@H](Cc1c[nH]c2ccccc12)C(=O)N[C@@H](Cc1c[nH]c2ccccc12)C(=O)N[C@@H](CCCNC(=N)N)C(=O)N[C@@H](Cc1ccccc1)C(=O)O [Com3, CH3CO-RRWWRF] (Ac-RRWWRF-OH)?
**A.** 99.9% Lethal Dose Concentration (LD99.9) E. coli [1]: 120 µM; 99.9% Lethal Dose Concentration (LD99.9) S. aureus [3]: 30 µM; 99.9% Lethal Dose Concentration (LD99.9) B. subtilis [4]: 7.5 µM; intact peptide after 2 h [5]: almost fully degraded; half-life at 5 µM ([5]; male, human): ~1 h

**Q.** Which “99.9% Lethal Dose Concentration (LD99.9) E. coli” value [1] does the source give for N=C(N)NCCC[C@@H]1NC(=O)[C@H](CCCNC(=N)N)NC(=O)[C@H](Cc2ccccc2)NC(=O)[C@H](CCCNC(=N)N)NC(=O)[C@H](Cc2c[nH]c3ccccc23)NC(=O)[C@H](Cc2c[nH]c3ccccc23)NC1=O [Com5, -RRWWRF-] (cyclo(RRWWRF)) here?
**A.** 30 µM

**Q.** What about the “LD99.9 anti-S. aureus in 25% human serum” value [2] of the same compound?
**A.** 30

**Q.** And the “99.9% Lethal Dose Concentration (LD99.9) S. aureus” value [3]?
**A.** 7.5 µM

**Q.** And the “99.9% Lethal Dose Concentration (LD99.9) B. subtilis” value [4]?
**A.** ≤0.45 µM

**Q.** And the remaining at 6.5 h, 5 µM ([5]; male, human)?
**A.** > 70%

**Q.** What about the remaining at 24 h, 5 µM ([5]; male, human) of the same compound?
**A.** ~50%

**Q.** For N=C(N)NCCC[C@@H]1NC(=O)[C@H](Cc2c[nH]c3ccccc23)NC(=O)[C@H](Cc2c[nH]c3ccccc23)NC(=O)[C@H](CCCNC(=N)N)NC(=O)[C@H](CCCNC(=N)N)NC(=O)[C@@H](N)CSSC[C@@H](C(N)=O)NC(=O)[C@H](Cc2ccccc2)NC1=O [Com6, CRRWWRFC-NH2] (H-CRRWWRFC-NH2; disulfide 1-8), which “99.9% Lethal Dose Concentration (LD99.9) E. coli” value [1] is on record?
**A.** 3.8 µM

**Q.** And the “LD99.9 anti-S. aureus in 25% human serum” value [2]?
**A.** 15

**Q.** What about the “99.9% Lethal Dose Concentration (LD99.9) S. aureus” value [3] of the same compound?
**A.** 0.9 µM

**Q.** And the “99.9% Lethal Dose Concentration (LD99.9) B. subtilis” value [4]?
**A.** 0.9 µM

**Q.** What about the remaining at 6.5 h, 5 µM ([5]; male, human) of the same compound?
**A.** ~50%

**Q.** What does the source list for N=C(N)NCCC[C@H](NC(=O)[C@H](Cc1c[nH]c2ccccc12)NC(=O)[C@H](CCC(N)=O)NC(=O)[C@H](Cc1c[nH]c2ccccc12)NC(=O)[C@H](CCCNC(=N)N)NC(=O)[C@@H](N)CCCNC(=N)N)C(=O)O [Lfc1, RRWQWR] (H-RRWQWR-OH)?
**A.** 99.9% Lethal Dose Concentration (LD99.9) E. coli [1]: 60 µM; LD99.9 anti-S. aureus in 25% human serum [2]: >120; 99.9% Lethal Dose Concentration (LD99.9) S. aureus [3]: 30 µM; 99.9% Lethal Dose Concentration (LD99.9) B. subtilis [4]: 7.5 µM; intact peptide after 2 h [5]: completely gone; half-life at 5 µM ([5]; male, human): < 0.5 h

**Q.** Which “99.9% Lethal Dose Concentration (LD99.9) E. coli” value [1] does the source give for CC(=O)N[C@@H](CCCNC(=N)N)C(=O)N[C@@H](CCCNC(=N)N)C(=O)N[C@@H](Cc1c[nH]c2ccccc12)C(=O)N[C@@H](CCC(N)=O)C(=O)N[C@@H](Cc1c[nH]c2ccccc12)C(=O)N[C@@H](CCCNC(=N)N)C(=O)O [Lfc3, CH3CO-RRWQWR] (Ac-RRWQWR-OH) here?
**A.** 120 µM

**Q.** And the “99.9% Lethal Dose Concentration (LD99.9) S. aureus” value [3]?
**A.** >120 µM

**Q.** And the “99.9% Lethal Dose Concentration (LD99.9) B. subtilis” value [4]?
**A.** 60 µM

**Q.** What about the “intact peptide after 2 h” value [5] of the same compound?
**A.** almost fully degraded

**Q.** What about the half-life at 5 µM ([5]; male, human) of the same compound?
**A.** ~1 h

**Q.** What does the source list for CC(=O)N[C@@H](CCCNC(=N)N)C(=O)N[C@@H](CCCNC(=N)N)C(=O)N[C@@H](Cc1c[nH]c2ccccc12)C(=O)N[C@@H](CCC(N)=O)C(=O)N[C@@H](Cc1c[nH]c2ccccc12)C(=O)N[C@@H](CCCNC(=N)N)C(N)=O [Lfc4, CH3CO-RRWQWR-NH2] (Ac-RRWQWR-NH2)?
**A.** 99.9% Lethal Dose Concentration (LD99.9) E. coli [1]: 15 µM; 99.9% Lethal Dose Concentration (LD99.9) S. aureus [3]: 60 µM; 99.9% Lethal Dose Concentration (LD99.9) B. subtilis [4]: 3.8 µM; half-life at 5 µM ([5]; male, human): ~1.5 h

**Q.** With N=C(N)NCCC[C@@H]1NC(=O)[C@H](Cc2c[nH]c3ccccc23)NC(=O)[C@H](CCC(N)=O)NC(=O)[C@H](Cc2c[nH]c3ccccc23)NC(=O)[C@H](CCCNC(=N)N)NC(=O)[C@H](CCCNC(=N)N)NC(=O)[C@@H](N)CSSC[C@@H](C(N)=O)NC1=O [Lfc6, CRRWQWRC-NH2] (H-CRRWQWRC-NH2; disulfide 1-8) as the compound, how does the “LD99.9 anti-S. aureus in 25% human serum” value [2] read?
**A.** 60
